These are literature values, as cited in article PMC12932482 (Frontiers in Pharmacology, 2026).

The conditions of this data set: Obs, +CLA (with clarithromycin); ref Rengelshausen et al. (2003).

On to `C[C@H]1O[C@@H](O[C@H]2[C@@H](O)C[C@H](O[C@H]3[C@@H](O)C[C@H](O[C@H]4CC[C@@]5(C)[C@H](CC[C@@H]6[C@@H]5C[C@@H](O)[C@]5(C)[C@@H](C7=CC(=O)OC7)CC[C@]65O)C4)O[C@@H]3C)O[C@@H]2C)C[C@H](O)[C@@H]1O` [digoxin], for which the “AUC0–3h” value is 11 ng·h/mL.
